The values below come from article PMC11936226, “Tris inhibits a GH1 β-glucosidase by a linear mixed inhibition mechanism” (PLOS One, 2025).

Assay [1] concerns the target T1, Sfβgly (GH1 β-glucosidase) (Spodoptera frugiperda, UniProt O61594).
T1 construct: purified recombinant Sfβgly
Nature of the assay: hydrolysis initial rates by purified enzyme (glucose detection). Type of assay: biochemical.

For assay [2], the target named is T1, Sfβgly (GH1 β-glucosidase). Nature of the assay: steady-state inhibition kinetics (Lineweaver-Burk) with NPβglc as substrate; also with cellobiose (Ki […]). Type of assay: biochemical.

T1 sequence (O61594 21-509): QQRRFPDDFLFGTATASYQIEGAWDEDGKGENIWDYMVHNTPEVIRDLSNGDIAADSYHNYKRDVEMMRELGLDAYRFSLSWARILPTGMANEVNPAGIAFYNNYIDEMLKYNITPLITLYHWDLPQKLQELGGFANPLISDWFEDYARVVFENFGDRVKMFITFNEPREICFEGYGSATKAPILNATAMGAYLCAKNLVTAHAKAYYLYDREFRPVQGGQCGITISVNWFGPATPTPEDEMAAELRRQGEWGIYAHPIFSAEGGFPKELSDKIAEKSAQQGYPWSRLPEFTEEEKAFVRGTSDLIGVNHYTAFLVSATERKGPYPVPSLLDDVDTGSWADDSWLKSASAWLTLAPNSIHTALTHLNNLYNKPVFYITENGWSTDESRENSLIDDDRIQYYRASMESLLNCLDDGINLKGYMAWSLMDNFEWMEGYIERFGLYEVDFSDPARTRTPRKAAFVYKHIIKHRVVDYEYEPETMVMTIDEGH

With `OC[C@H]1O[C@@H](O[C@H]2[C@H](O)[C@@H](O)C(O)O[C@@H]2CO)[C@H](O)[C@@H](O)[C@@H]1O` (some centres unmarked) [C2, cellobiose], the “hydrolysis initial rates by purified enzyme (glucose detection)” value in assay [1] is “The same experiment was repeated using C2, a natural substrate of Sfβgly, and two independent enzyme samples”. The Ki is the equilibrium dissociation constant of an inhibitor or competing ligand from its target. Low readings indicate tighter binding, high ones weaker binding. For `NC(CO)(CO)CO` [Tris, 2-amino-2-(hydroxymethyl)-1,3-propanediol], the Ki in assay [2] was 12 ± 2 mM.
